Measurements taken from paper PMC11314561, “Design and Synthesis of Novel Aminoindazole-pyrrolo[2,3-b]pyridine Inhibitors of IKKα That Selectively Perturb Cellular Non-Canonical NF-κB Signalling” (Molecules, 2024).

Experiments:
Assay in all cases: kinase panel
Format in all cases: biochemical
Fer(h) = Fer(h) (Homo sapiens, UniProt P16591)
Procedure, shortened: (§1)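 Values are percent inhibition from kinome-wide profiling of three series compounds across 231 kinases, with a structurally similar analogue tested on only 98 selected kinases.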

IGF-1R(h) = IGF-1R(h) (Homo sapiens, UniProt P08069)
Procedure, shortened: as §1

Pim-3(h) = Pim-3(h) (Homo sapiens, UniProt Q86V86)
Procedure, shortened: as §1

BrSK1(h) = BrSK1(h) (Homo sapiens, UniProt Q8TDC3)
Procedure, shortened: as §1

ALK4(h) = ALK4(h) (Homo sapiens, UniProt P36896)
Procedure, shortened: as §1

FGFR4(h) = FGFR4(h) (Homo sapiens, UniProt P22455)
Procedure, shortened: as §1

PKCθ(h) = PKCθ(h) (Homo sapiens, UniProt Q04759)
Procedure, shortened: as §1

EphB4(h) = EphB4(h) (Homo sapiens, UniProt P54760)
Procedure, shortened: as §1

TLK2(h) = TLK2(h) (Homo sapiens, UniProt Q86UE8)
Procedure, shortened: as §1

PKCι(h) = PKCι(h) (Homo sapiens, UniProt P41743)
Procedure, shortened: as §1

VRK2(h) = VRK2(h) (Homo sapiens, UniProt Q86Y07)
Procedure, shortened: as §1

MRCKα(h) = MRCKα(h) (Homo sapiens, UniProt Q5VT25)
Procedure, shortened: as §1

PKCβII(h) = PKCβII(h) (Homo sapiens, UniProt P05771)
Procedure, shortened: as §1

Mnk2(h) = Mnk2(h) (Homo sapiens, UniProt Q9HBH9)
Procedure, shortened: as §1

MLK1(h) = MLK1(h) (Homo sapiens, UniProt P80192)
Procedure, shortened: as §1

mTOR/FKBP12(h) = mTOR/FKBP12(h) (Homo sapiens, UniProt P42345)
Procedure, shortened: as §1

CK1γ2(h) = CK1γ2(h) (Homo sapiens, UniProt P78368)
Procedure, shortened: as §1

MKK6(h) = MKK6(h) (Homo sapiens, UniProt P52564)
Procedure, shortened: as §1

NEK3(h) = NEK3(h) (Homo sapiens, UniProt P51956)
Procedure, shortened: as §1

Fyn(h) = Fyn(h) (Homo sapiens, UniProt P06241)
Procedure, shortened: as §1

MAPK2(h) = MAPK2(h) (Homo sapiens, UniProt P28482)
Procedure, shortened: as §1

Ron(h) = Ron(h) (Homo sapiens, UniProt Q04912)
Procedure, shortened: as §1

Itk(h) = Itk(h) (Homo sapiens, UniProt Q08881)
Procedure, shortened: as §1

FGFR2(h) = FGFR2(h) (Homo sapiens, UniProt P21802)
Procedure, shortened: as §1

PKCζ(h) = PKCζ(h) (Homo sapiens, UniProt Q05513)
Procedure, shortened: as §1

MAPKAP-K3(h) = MAPKAP-K3(h) (Homo sapiens, UniProt Q16644)
Procedure, shortened: as §1

Rsk2(h) = Rsk2(h) (Homo sapiens, UniProt P51812)
Procedure, shortened: as §1

MSK2(h) = MSK2(h) (Homo sapiens, UniProt O75676)
Procedure, shortened: as §1

CSK(h) = CSK(h) (Homo sapiens, UniProt P41240)
Procedure, shortened: as §1

RIPK2(h) = RIPK2(h) (Homo sapiens, UniProt O43353)
Procedure, shortened: as §1

SIK(h) = SIK(h) (Homo sapiens, UniProt P57059)
Procedure, shortened: as §1

WNK3(h) = WNK3(h) (Homo sapiens, UniProt Q9BYP7)
Procedure, shortened: as §1

Pim-2(h) = Pim-2(h) (Homo sapiens, UniProt Q9P1W9)
Procedure, shortened: as §1

NEK6(h) = NEK6(h) (Homo sapiens, UniProt Q9HC98)
Procedure, shortened: as §1

GRK7(h) = GRK7(h) (Homo sapiens, UniProt Q8WTQ7)
Procedure, shortened: as §1

TAO2(h) = TAO2(h) (Homo sapiens, UniProt Q9UL54)
Procedure, shortened: as §1

PASK(h) = PASK(h) (Homo sapiens, UniProt Q96RG2)
Procedure, shortened: as §1

EphB3(h) = EphB3(h) (Homo sapiens, UniProt P54753)
Procedure, shortened: as §1

Rsk4(h) = Rsk4(h) (Homo sapiens, UniProt Q9UK32)
Procedure, shortened: as §1

Tie2 (h) = Tie2 (h) (Homo sapiens, UniProt Q02763)
Procedure, shortened: as §1

PhKγ2(h) = PhKγ2(h) (Homo sapiens, UniProt P15735)
Procedure, shortened: as §1

Bmx(h) = Bmx(h) (Homo sapiens, UniProt P51813)
Procedure, shortened: as §1

MAPKAP-K3(h), sequence (Q16644 whole entry): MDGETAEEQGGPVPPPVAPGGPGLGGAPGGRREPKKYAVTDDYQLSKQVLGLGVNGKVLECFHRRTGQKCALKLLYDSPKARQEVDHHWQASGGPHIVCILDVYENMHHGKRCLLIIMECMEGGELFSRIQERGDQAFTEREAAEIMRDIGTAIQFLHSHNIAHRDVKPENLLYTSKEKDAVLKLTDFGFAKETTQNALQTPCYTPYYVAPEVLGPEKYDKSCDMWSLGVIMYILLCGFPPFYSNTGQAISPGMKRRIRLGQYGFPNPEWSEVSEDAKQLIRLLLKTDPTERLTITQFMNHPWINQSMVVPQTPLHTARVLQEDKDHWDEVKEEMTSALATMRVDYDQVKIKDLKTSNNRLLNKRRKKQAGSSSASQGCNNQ
Pim-2(h), sequence (Q9P1W9 whole entry): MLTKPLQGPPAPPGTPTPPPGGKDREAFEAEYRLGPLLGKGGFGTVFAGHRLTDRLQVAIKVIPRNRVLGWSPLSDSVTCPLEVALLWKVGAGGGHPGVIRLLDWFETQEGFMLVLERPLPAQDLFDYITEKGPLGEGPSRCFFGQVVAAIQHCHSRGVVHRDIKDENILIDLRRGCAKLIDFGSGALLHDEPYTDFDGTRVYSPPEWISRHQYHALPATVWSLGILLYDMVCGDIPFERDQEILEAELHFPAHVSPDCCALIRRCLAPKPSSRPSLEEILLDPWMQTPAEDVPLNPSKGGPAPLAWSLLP
SIK(h), sequence (P57059 whole entry): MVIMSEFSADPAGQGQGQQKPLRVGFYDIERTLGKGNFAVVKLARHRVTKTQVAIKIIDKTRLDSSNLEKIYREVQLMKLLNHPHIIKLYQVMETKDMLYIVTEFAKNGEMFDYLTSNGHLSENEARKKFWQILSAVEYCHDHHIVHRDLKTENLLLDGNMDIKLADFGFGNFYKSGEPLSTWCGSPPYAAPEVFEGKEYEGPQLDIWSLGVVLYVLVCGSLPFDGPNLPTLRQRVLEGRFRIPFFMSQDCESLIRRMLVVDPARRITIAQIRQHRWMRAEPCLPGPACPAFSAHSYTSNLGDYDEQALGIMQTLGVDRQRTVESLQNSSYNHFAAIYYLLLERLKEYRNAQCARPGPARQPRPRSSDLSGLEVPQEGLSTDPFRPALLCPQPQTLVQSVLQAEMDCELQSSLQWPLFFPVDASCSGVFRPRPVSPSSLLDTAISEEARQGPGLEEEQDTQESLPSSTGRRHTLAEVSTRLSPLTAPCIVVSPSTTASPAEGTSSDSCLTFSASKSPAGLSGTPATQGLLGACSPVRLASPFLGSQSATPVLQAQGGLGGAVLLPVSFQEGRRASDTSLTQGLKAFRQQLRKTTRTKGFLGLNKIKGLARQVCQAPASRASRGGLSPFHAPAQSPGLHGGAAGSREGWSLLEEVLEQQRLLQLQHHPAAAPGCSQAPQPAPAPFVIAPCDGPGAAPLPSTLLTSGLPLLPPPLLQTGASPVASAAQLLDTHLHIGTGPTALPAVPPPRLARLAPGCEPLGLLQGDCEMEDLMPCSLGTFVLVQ
EphB3(h), sequence (P54753 34-998): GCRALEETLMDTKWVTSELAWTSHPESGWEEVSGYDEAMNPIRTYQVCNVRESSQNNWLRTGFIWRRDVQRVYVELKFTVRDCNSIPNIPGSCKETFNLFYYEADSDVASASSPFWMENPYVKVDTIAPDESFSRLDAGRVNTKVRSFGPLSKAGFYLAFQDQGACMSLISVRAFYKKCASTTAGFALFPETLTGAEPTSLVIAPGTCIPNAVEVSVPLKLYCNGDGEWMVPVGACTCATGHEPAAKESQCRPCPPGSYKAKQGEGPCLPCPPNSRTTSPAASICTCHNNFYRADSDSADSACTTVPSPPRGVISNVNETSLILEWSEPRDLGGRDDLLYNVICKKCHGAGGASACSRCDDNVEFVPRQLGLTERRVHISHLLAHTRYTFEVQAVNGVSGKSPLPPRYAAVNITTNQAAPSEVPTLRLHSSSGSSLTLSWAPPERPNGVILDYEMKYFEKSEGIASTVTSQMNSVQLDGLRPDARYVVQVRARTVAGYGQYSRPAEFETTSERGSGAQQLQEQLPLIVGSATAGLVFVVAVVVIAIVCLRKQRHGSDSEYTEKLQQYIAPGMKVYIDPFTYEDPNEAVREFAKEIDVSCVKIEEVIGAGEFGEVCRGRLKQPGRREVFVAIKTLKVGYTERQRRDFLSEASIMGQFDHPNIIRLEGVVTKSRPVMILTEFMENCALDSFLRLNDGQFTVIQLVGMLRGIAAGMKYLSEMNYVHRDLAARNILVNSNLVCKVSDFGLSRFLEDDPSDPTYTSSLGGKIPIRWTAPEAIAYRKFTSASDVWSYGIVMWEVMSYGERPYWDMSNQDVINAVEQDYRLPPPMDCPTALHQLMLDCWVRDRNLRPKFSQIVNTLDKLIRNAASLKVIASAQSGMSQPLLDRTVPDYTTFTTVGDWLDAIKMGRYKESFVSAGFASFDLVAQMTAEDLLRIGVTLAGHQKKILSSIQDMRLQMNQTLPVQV
FGFR4(h), sequence (P22455 22-802): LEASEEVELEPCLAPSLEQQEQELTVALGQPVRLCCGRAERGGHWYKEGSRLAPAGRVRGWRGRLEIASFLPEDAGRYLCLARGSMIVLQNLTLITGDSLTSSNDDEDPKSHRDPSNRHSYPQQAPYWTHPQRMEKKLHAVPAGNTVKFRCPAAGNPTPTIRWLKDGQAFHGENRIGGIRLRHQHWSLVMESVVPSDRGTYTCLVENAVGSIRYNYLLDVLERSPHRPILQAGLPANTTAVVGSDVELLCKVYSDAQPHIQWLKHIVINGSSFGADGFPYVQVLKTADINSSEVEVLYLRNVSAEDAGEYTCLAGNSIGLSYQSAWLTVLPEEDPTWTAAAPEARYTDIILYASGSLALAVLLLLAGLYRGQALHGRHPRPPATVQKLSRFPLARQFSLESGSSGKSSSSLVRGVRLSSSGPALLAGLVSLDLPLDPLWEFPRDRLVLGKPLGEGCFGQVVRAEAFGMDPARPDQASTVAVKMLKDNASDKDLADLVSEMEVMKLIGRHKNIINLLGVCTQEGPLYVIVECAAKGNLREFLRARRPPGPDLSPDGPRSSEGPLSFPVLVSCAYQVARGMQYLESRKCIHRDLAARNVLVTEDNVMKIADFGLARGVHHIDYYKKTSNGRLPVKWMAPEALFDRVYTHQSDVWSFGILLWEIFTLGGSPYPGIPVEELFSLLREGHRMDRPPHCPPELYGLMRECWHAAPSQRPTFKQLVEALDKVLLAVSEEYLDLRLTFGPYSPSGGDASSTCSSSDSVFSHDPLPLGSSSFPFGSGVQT
Ron(h), sequence (Q04912 25-1400): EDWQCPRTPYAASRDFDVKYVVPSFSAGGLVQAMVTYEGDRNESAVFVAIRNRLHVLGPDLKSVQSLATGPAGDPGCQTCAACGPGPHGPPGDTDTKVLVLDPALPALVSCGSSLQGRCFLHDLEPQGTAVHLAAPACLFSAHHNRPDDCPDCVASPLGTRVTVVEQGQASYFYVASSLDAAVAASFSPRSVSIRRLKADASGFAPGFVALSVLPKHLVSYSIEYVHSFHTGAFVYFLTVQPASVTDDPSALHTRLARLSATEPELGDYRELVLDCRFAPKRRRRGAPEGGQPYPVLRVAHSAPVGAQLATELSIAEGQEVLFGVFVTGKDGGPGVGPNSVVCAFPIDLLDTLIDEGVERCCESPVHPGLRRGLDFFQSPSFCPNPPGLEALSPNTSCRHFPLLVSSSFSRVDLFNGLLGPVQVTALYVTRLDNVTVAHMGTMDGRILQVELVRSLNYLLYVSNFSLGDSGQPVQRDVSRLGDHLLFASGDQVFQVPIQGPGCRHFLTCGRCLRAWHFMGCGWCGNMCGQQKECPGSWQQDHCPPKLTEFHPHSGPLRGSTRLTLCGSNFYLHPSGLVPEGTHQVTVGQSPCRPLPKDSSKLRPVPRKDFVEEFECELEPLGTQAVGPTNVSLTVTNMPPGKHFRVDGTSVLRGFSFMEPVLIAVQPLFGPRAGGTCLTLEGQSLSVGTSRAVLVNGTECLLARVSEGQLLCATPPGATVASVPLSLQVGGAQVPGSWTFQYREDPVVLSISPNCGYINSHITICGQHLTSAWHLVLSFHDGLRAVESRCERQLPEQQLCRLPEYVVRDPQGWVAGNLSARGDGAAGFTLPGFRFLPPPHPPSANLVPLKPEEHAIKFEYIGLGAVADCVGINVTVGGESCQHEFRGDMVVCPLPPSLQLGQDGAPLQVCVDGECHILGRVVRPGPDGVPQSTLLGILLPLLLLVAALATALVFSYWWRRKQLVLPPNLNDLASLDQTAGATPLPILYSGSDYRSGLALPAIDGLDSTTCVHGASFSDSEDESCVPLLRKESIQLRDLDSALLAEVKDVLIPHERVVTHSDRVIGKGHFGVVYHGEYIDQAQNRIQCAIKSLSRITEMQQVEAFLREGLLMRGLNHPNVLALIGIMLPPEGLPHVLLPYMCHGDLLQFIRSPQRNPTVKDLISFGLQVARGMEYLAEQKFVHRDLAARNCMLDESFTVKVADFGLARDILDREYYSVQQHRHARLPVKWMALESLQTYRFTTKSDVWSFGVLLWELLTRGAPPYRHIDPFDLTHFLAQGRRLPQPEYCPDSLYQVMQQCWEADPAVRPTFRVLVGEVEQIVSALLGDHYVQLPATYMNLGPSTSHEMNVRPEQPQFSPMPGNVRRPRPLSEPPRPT

Structure (SMILES): Nc1n[nH]c2ccc(-c3ccnc4[nH]c(-c5ccccc5)cc34)cc12 [Compound 4]
- inhibition at 1 µM (Fer(h)): 7%
- inhibition at 1 µM (IGF-1R(h)): 64%
- inhibition at 1 µM (Pim-3(h)): 10%
- inhibition at 1 µM (BrSK1(h)): 45%
- inhibition at 1 µM (ALK4(h)): 25%
- inhibition at 1 µM (FGFR4(h)): 8%
- inhibition at 1 µM (PKCθ(h)): 6%
- inhibition at 1 µM (EphB4(h)): 53%
- inhibition at 1 µM (TLK2(h)): -8%
- inhibition at 1 µM (PKCι(h)): 3%
- inhibition at 1 µM (VRK2(h)): 0%
- inhibition at 1 µM (MRCKα(h)): -22%
- inhibition at 1 µM (PKCβII(h)): 9%
- inhibition at 1 µM (Mnk2(h)): 67%
- inhibition at 1 µM (MLK1(h)): 79%
- inhibition at 1 µM (mTOR/FKBP12(h)): 3%
- inhibition at 1 µM (CK1γ2(h)): 49%
- inhibition at 1 µM (MKK6(h)): 17%
- inhibition at 1 µM (NEK3(h)): 0%
- inhibition at 1 µM (Fyn(h)): 64%
- inhibition at 1 µM (MAPK2(h)): 29%
- inhibition at 1 µM (Ron(h)): 53%
- inhibition at 1 µM (Itk(h)): 18%
- inhibition at 1 µM (FGFR2(h)): 79%
- inhibition at 1 µM (PKCζ(h)): -1%
- inhibition at 1 µM (MAPKAP-K3(h)): 12%
- inhibition at 1 µM (Rsk2(h)): 28%
- inhibition at 1 µM (MSK2(h)): 12%
- inhibition at 1 µM (CSK(h)): -16%
- inhibition at 1 µM (RIPK2(h)): 54%
- inhibition at 1 µM (SIK(h)): 56%
- inhibition at 1 µM (WNK3(h)): 20%
- inhibition at 1 µM (Pim-2(h)): 25%
- inhibition at 1 µM (NEK6(h)): 6%
- inhibition at 1 µM (GRK7(h)): 10%
- inhibition at 1 µM (TAO2(h)): 46%
- inhibition at 1 µM (PASK(h)): 65%
- inhibition at 1 µM (EphB3(h)): 8%
- inhibition at 1 µM (Rsk4(h)): 17%
- inhibition at 1 µM (Tie2 (h)): 55%
- inhibition at 1 µM (PhKγ2(h)): 50%
- inhibition at 1 µM (Bmx(h)): 55%

Structure (SMILES): Nc1n[nH]c2ccc(-c3ccnc4[nH]c(-c5cccc(OCc6ccccc6)c5)cc34)cc12 [Compound 5r [SU1261]]
- inhibition at 1 µM (Fer(h)): -16%
- inhibition at 1 µM (IGF-1R(h)): 14%
- inhibition at 1 µM (Pim-3(h)): 6%
- inhibition at 1 µM (BrSK1(h)): -5%
- inhibition at 1 µM (ALK4(h)): 8%
- inhibition at 1 µM (FGFR4(h)): 6%
- inhibition at 1 µM (PKCθ(h)): -14%
- inhibition at 1 µM (EphB4(h)): 25%
- inhibition at 1 µM (TLK2(h)): 0%
- inhibition at 1 µM (PKCι(h)): -10%
- inhibition at 1 µM (VRK2(h)): -11%
- inhibition at 1 µM (MRCKα(h)): -18%
- inhibition at 1 µM (PKCβII(h)): -1%
- inhibition at 1 µM (Mnk2(h)): 26%
- inhibition at 1 µM (MLK1(h)): 56%
- inhibition at 1 µM (mTOR/FKBP12(h)): 2%
- inhibition at 1 µM (CK1γ2(h)): 28%
- inhibition at 1 µM (MKK6(h)): 2%
- inhibition at 1 µM (NEK3(h)): -14%
- inhibition at 1 µM (Fyn(h)): 33%
- inhibition at 1 µM (MAPK2(h)): -1%
- inhibition at 1 µM (Ron(h)): 7%
- inhibition at 1 µM (Itk(h)): 20%
- inhibition at 1 µM (FGFR2(h)): 39%
- inhibition at 1 µM (PKCζ(h)): 4%
- inhibition at 1 µM (MAPKAP-K3(h)): -1%
- inhibition at 1 µM (Rsk2(h)): 0%
- inhibition at 1 µM (MSK2(h)): -3%
- inhibition at 1 µM (CSK(h)): -4%
- inhibition at 1 µM (RIPK2(h)): 19%
- inhibition at 1 µM (SIK(h)): 8%
- inhibition at 1 µM (WNK3(h)): 17%
- inhibition at 1 µM (Pim-2(h)): 5%
- inhibition at 1 µM (NEK6(h)): 3%
- inhibition at 1 µM (GRK7(h)): -3%
- inhibition at 1 µM (TAO2(h)): 7%
- inhibition at 1 µM (PASK(h)): 16%
- inhibition at 1 µM (EphB3(h)): -4%
- inhibition at 1 µM (Rsk4(h)): 4%
- inhibition at 1 µM (Tie2 (h)): 18%
- inhibition at 1 µM (PhKγ2(h)): 21%
- inhibition at 1 µM (Bmx(h)): 17%
